Results published in patent US9187472B2 (AbbVie Inc., priority 2012, dated 2015).

Experiments:
PC3 cells = assay: NAMPT Cell Proliferation Assay; format: cell-based; details: Homo sapiens, PC-3, 120 h, 5 days incubation, cell viability by Cell Titer Glo
How it was run: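 Seed PC3 at 500 cells/well (RPMI, 10% HI-FBS), attach overnight; add compound, 10-fold series 10 μM → 1×10^−5 μM; incubate 5 d, 37° C/5% CO2; luminescent viability readout; fit % inhibition sigmoidally for IC50.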

NAMPT = NAMPT (Homo sapiens, UniProt P43490); assay: TR-FRET Binding Assay of NAMPT with PRPP; details: with 200 μM PRPP and 2.5 mM ATP; 2 nM NAMPT, 2 nM probe, 16 hours equilibration
Chain of NAMPT (P43490 whole entry): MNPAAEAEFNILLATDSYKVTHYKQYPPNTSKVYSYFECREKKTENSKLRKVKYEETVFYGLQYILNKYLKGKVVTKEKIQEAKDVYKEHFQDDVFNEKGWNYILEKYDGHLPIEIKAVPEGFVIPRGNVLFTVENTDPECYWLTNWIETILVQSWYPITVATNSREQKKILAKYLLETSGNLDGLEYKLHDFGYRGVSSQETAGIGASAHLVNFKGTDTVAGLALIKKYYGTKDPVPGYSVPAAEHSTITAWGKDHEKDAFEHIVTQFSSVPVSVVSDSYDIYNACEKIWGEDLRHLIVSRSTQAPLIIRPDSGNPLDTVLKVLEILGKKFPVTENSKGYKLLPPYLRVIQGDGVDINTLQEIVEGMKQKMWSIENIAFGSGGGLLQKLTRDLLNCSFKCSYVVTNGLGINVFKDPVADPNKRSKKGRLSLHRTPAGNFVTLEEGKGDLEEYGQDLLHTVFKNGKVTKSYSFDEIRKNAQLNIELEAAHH
How it was run: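 Read-out is TR-FRET after a 16 h equilibration allowing possible compound modification by the enzyme. Final mix: 2 nM NAMPT, 2 nM probe, 1 nM Tb-anti-His antibody, 200 μM PRPP, 2.5 mM ATP, 2% DMSO.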

[1] = target: NAMPT (human, recombinant, C-terminally His-tagged) (Homo sapiens, UniProt P43490); assay: Time-Resolved Fluorescence Resonance Energy Transfer (TR-FRET) Binding Assay of NAMPT; details: without substrates; 6.8 nM NAMPT, 200 nM probe, 3 hours equilibration
Chain of NAMPT (human, recombinant, C-terminally His-tagged) (P43490 whole entry): as above
How it was run: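 Competitive binding against an Oregon Green 488 tracer (200 nM), 6.8 nM His-tagged enzyme, 1 nM Tb antibody, 2% DMSO, 3 h at RT. IC50 derived from TR-FRET ratios.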

Structure (SMILES)	IC50 (PC3 cells)	IC50 (NAMPT)	IC50 [1]
O=C(NCc1ccn2ccnc2c1)Nc1ccc(-c2cnn(CC3CCCO3)c2)cc1 (stereo not drawn) [Example 674, 1-(imidazo[1,2-a]pyridin-7-ylmethyl)-3-{4-[1-(tetrahydrofuran-2-ylmethyl)-1H-pyrazol-4-yl]phenyl}urea]	32.4 nM	0.535 nM	297 nM
CC(C)(C)Cn1cc(-c2ccc(C(=O)NCc3ccn4ccnc4c3)o2)cn1 [Example 825, 5-[1-(2,2-dimethylpropyl)-1H-pyrazol-4-yl]-N-(imidazo[1,2-a]pyridin-7-ylmethyl)furan-2-carboxamide]	1.06 nM	0.538 nM	26.1 nM
O=C(NCc1ccn2ccnc2c1)c1cnc(C2CCN(C(=O)c3ccccc3)C2)s1 (stereo not drawn) [Example 807, 2-(1-benzoylpyrrolidin-3-yl)-N-(imidazo[1,2-a]pyridin-7-ylmethyl)-1,3-thiazole-5-carboxamide]	100 nM	0.509 nM	628 nM
CC(C)CCC(=O)Nc1ccc(NC(=O)NCc2ccn3ccnc3c2)cc1 [Example 280, N-(4-{[(imidazo[1,2-a]pyridin-7-ylmethyl)carbamoyl]amino}phenyl)-4-methylpentanamide]	13 nM	0.213 nM	11.3 nM
COCCC(=O)N(Cc1ccc(C#N)cc1)c1ncc(C(=O)NCc2ccc3nccn3c2)s1 [Example 56, 2-[(4-cyanobenzyl)(3-methoxypropanoyl)amino]-N-(imidazo[1,2-a]pyridin-6-ylmethyl)-1,3-thiazole-5-carboxamide]	8.86 nM	1.07 nM	158 nM
O=C(NCc1ccn2ccnc2c1)c1ccc(C2CN(C(=O)c3ccc(F)cc3F)C2)cc1 [Example 641, 4-[1-(2,4-difluorobenzoyl)azetidin-3-yl]-N-(imidazo[1,2-a]pyridin-7-ylmethyl)benzamide]	9.99 nM	0.684 nM	74.8 nM
N#Cc1ccc(C(=O)N2CCC(c3ccc(C(=O)NCc4ccn5ccnc5c4)cc3)CC2)cc1 [Example 520, 4-[1-(4-cyanobenzoyl)piperidin-4-yl]-N-(imidazo[1,2-a]pyridin-7-ylmethyl)benzamide]	101 nM	0.301 nM	565 nM
O=C(NCc1ccn2ccnc2c1)c1ccc(C2CN(C(=O)CC3CCCCC3)C2)cc1 [Example 657, 4-[1-(cyclohexylacetyl)azetidin-3-yl]-N-(imidazo[1,2-a]pyridin-7-ylmethyl)benzamide]	36 nM	0.589 nM	232 nM
O=C(CC1CCOC1)Nc1ccc(NC(=O)Nc2ccc3nccn3c2)cc1 (stereo not drawn) [Example 26, N-{4-[(imidazo[1,2-a]pyridin-6-ylcarbamoyl)amino]phenyl}-2-(tetrahydrofuran-3-yl)acetamide]	261 nM	1.1 nM	211 nM
CC(C)(O)C(=O)N1CC[C@@H](Oc2ccc(NC(=O)NCc3ccn4ccnc4c3)cc2)C1 [Example 334, 1-(4-{[(3R)-1-(2-hydroxy-2-methylpropanoyl)pyrrolidin-3-yl]oxy}phenyl)-3-(imidazo[1,2-a]pyridin-7-ylmethyl)urea]	21.9 nM	0.345 nM	80.9 nM
O=C(NCc1ccn2ccnc2c1)c1cnc(C2=CCN(C(=O)C3CCOCC3)CC2)s1 [Example 319, N-(imidazo[1,2-a]pyridin-7-ylmethyl)-2-[1-(tetrahydro-2H-pyran-4-ylcarbonyl)-1,2,3,6-tetrahydropyridin-4-yl]-1,3-thiazole-5-carboxamide]	29.3 nM	0.192 nM	466 nM
COc1ccc(C(=O)N2CCC(c3ccc(C(=O)NCc4ccn5ccnc5c4)cc3)C2)cc1 (stereo not drawn) [Example 605, N-(imidazo[1,2-a]pyridin-7-ylmethyl)-4-[1-(4-methoxybenzoyl)pyrrolidin-3-yl]benzamide]	66.1 nM	0.886 nM	559 nM
